Measurements as given in patent publication US4801456A, “Growth hormone-releasing factor analogs” (International Minerals & Chemical Corp., priority 1987, dated 1989).
Square brackets hold non-standard residues; d marks the D form. Ends that are not written are not given here. Peptide text beside a SMILES is read from it. Nle = CCCC[C@H](N)C(=O)O

How the values were obtained:
[1] = test system: rat pituitary cells in tissue culture; assay: Bioassay of hGRF analogs: GH release from cultured pituitary cells; type: cell-based; settings: for Dose Needed to Release 2.01 μg/ml of GH (ED50 value for hGRF) / Maximum GH Released / Relative Maximum Activity (% of hGRF): from curves generated by ALLFIT; for GH release at dosages comparable to native hGRF: referring to Table 1; for Potency: (ED50 of hGRF)/(Dose required to give same response as ED50 of hGRF): relative to hGRF(1-44)-NH2 = 100
Excerpt: The assay for biological activity, which is based on the ability to stimulate release of growth hormone in rat pituitary cells in tissue culture, has been described in detail (Culler, M. D.; Kenjo, T.: Obara, N.; Arimuar, A., Stimulation of cAMP. Accumulation by Human Pancreatic GH-Releasing Factor-(1-44). Am. J. Physiol. 1984, 247 (Endocrinol.Metab.10), E609-E615.
ALLFIT, the 4-parameter logistic curve fitting program available from the Biomedical Computer Technology Information Center, Vanderbilt Medical Center, Nashville TN, was used to determine ED50 and maximal stimulated values from the data. In several instances, the amount of GH released reached a maximum value and decreased with further increasing doses of the hGRF analogs. To simplify the data analysis, these values were not used in the calculations. The calculated maximal responses, the doses of the analog required to release the amount of GH released at the ED50 of the standard (hGRF) and the potencies of the analogs relative to hGRF, are given in Table 2. Generally all novel analogs were fully active and were able to stimulate the release of growth hormone with maximal values of GH release being within 80% of the value for natural hGRF.

GH releasing activity = settings: reported by Rivier et al.; cited from earlier work

Compound | GH Released (mean ± (S.E.)) ([1]; Dose 1 × 10^-6 M) | GH Released (mean ± (S.E.)) ([1]; Dose 1 × 10^-7 M) | GH Released (mean ± (S.E.)) ([1]; Dose 1 × 10^-8 M) | GH Released (mean ± (S.E.)) ([1]; Dose 1 × 10^-9 M) | GH Released (mean ± (S.E.)) ([1]; Dose 1 × 10^-10 M) | GH Released (mean ± (S.E.)) ([1]; Dose 1 × 10^-11 M) | Dose Needed to Release 2.01 μg/ml of GH (ED50 value for hGRF) [1] [nM] | Maximum GH Released [1] [µg/mL] | Relative Maximum Activity (% of hGRF) [1] [%] | GH release at dosages comparable to native hGRF [1] | Potency: (ED50 of hGRF)/(Dose required to give same response as ED50 of hGRF) [1] [%] | Biological activity compared with natural hGRF(1-44)--NH2 ([1]; natural hGRF isolated from a human pancreatic tumor (Salk Institute standard)) | activity compared in vitro with the parent hpGRF(1-40)--OH (GH releasing activity)
CCCC[C@H](NC(=O)[C@@H](NC(=O)[C@H](CC(N)=O)NC(=O)[C@H](CCC(N)=O)NC(=O)[C@H](CC(C)C)NC(=O)[C@H](CC(C)C)NC(=O)[C@H](CCCCN)NC(=O)[C@H](CCCNC(=N)N)NC(=O)[C@H](C)NC(=O)[C@H](CO)NC(=O)[C@H](CC(C)C)NC(=O)[C@H](CCC(N)=O)NC(=O)CNC(=O)[C@H](CC(C)C)NC(=O)[C@@H](NC(=O)[C@H](CCCCN)NC(=O)[C@H](CCCNC(=N)N)NC(=O)[C@H](Cc1ccc(O)cc1)NC(=O)[C@H](CO)NC(=O)[C@H](CC(=O)O)NC(=O)[C@@H](NC(=O)[C@H](Cc1ccccc1)NC(=O)[C@@H](NC(=O)[C@H](C)NC(=O)[C@H](CC(=O)O)NC(=O)[C@H](C)NC(=O)[C@@H](N)Cc1ccc(O)cc1)[C@@H](C)CC)[C@@H](C)O)C(C)C)[C@@H](C)CC)C(=O)N[C@@H](CO)C(=O)N[C@@H](CCCNC(=N)N)C(=O)N[C@@H](CCC(N)=O)C(=O)N[C@@H](CCC(N)=O)C(N)=O [[Asp^8,Asn^25,Nle^27], [Asp^8,Asn^25,Nle^27]-hGRF(1-31)--NH2] (H-YADAIFTDSYRKVLGQLSARKLLQNI[Nle]SRQQ-NH2) | 2.86 (0.07) μg/mL | 2.93 (0.17) μg/mL | 2.86 (0.08) μg/mL | 2.59 (0.17) μg/mL | 0.96 (0.07) μg/mL | 0.74 (0.09) μg/mL | 0.42 | 2.89 | 87 | induced GH release in dosages comparable to those for native hGRF | 76 |  | 
CCCC[C@H](NC(=O)[C@@H](NC(=O)[C@H](CC(=O)O)NC(=O)[C@H](CCC(N)=O)NC(=O)[C@H](CC(C)C)NC(=O)[C@H](CC(C)C)NC(=O)[C@H](CCCCN)NC(=O)[C@H](CCCNC(=N)N)NC(=O)[C@H](C)NC(=O)[C@H](CO)NC(=O)[C@H](CC(C)C)NC(=O)[C@H](CCC(N)=O)NC(=O)CNC(=O)[C@H](CC(C)C)NC(=O)[C@@H](NC(=O)[C@H](CCCCN)NC(=O)[C@H](CCCNC(=N)N)NC(=O)[C@H](Cc1ccc(O)cc1)NC(=O)[C@H](CO)NC(=O)[C@H](CC(=O)O)NC(=O)[C@@H](NC(=O)[C@H](Cc1ccccc1)NC(=O)[C@@H](NC(=O)[C@H](C)NC(=O)[C@H](CC(=O)O)NC(=O)[C@H](C)NC(=O)[C@@H](N)Cc1ccc(O)cc1)[C@@H](C)CC)[C@@H](C)O)C(C)C)[C@@H](C)CC)C(=O)N[C@@H](CO)C(=O)N[C@@H](CCCNC(=N)N)C(=O)N[C@@H](CCC(N)=O)C(=O)N[C@@H](CCC(N)=O)C(N)=O [[Asp^8,Nle^27], [Asp^8,Nle^27]-hGRF(1-31)---NH2] (H-YADAIFTDSYRKVLGQLSARKLLQDI[Nle]SRQQ-NH2) | 3.17 (0.24) μg/mL | 3.52 (0.22) μg/mL | 3.59 (0.17) μg/mL | 2.69 (0.12) μg/mL | 1.18 (0.10) μg/mL | 0.61 (0.03) μg/mL | 0.39 | 3.60 | 109 | induced GH release in dosages comparable to those for native hGRF | 82 |  | 
CC[C@H](C)[C@H](NC(=O)[C@H](C)NC(=O)[C@H](CC(=O)O)NC(=O)[C@H](C)NC(=O)[C@@H](N)Cc1ccc(O)cc1)C(=O)N[C@@H](Cc1ccccc1)C(=O)N[C@H](C(=O)N[C@@H](CC(N)=O)C(=O)N[C@@H](CO)C(=O)N[C@@H](Cc1ccc(O)cc1)C(=O)N[C@@H](CCCNC(=N)N)C(=O)N[C@@H](CCCCN)C(=O)N[C@H](C(=O)N[C@@H](CC(C)C)C(=O)NCC(=O)N[C@@H](CCC(N)=O)C(=O)N[C@@H](CC(C)C)C(=O)N[C@@H](CO)C(=O)N[C@@H](C)C(=O)N[C@@H](CCCNC(=N)N)C(=O)N[C@@H](CCCCN)C(=O)N[C@@H](CC(C)C)C(=O)N[C@@H](CC(C)C)C(=O)N[C@@H](CCC(N)=O)C(=O)N[C@@H](CC(=O)O)C(=O)N[C@H](C(=O)N[C@@H](CCSC)C(=O)N[C@@H](CO)C(=O)N[C@@H](CCCNC(=N)N)C(=O)N[C@@H](CCC(N)=O)C(=O)N[C@@H](CCC(N)=O)C(=O)NCC(=O)N[C@@H](CCC(=O)O)C(=O)N[C@@H](CO)C(=O)N[C@@H](CC(N)=O)C(=O)N[C@@H](CCC(N)=O)C(=O)N[C@@H](CCC(=O)O)C(=O)N[C@@H](CCCNC(=N)N)C(=O)NCC(=O)N[C@@H](C)C(=O)N[C@@H](CCCNC(=N)N)C(=O)N[C@@H](C)C(=O)N[C@@H](CCCNC(=N)N)C(=O)N[C@@H](CC(C)C)C(N)=O)[C@@H](C)CC)C(C)C)[C@@H](C)O [hGRF(1-44)-NH2, hGRF(1-44)--NH2, reference compound] | 2.81 (0.13) μg/mL | 3.17 (0.12) μg/mL | 3.44 (0.23) μg/mL | 2.84 (0.12) μg/mL | 1.16 (0.04) μg/mL | 0.73 (0.03) μg/mL | 0.32 | 3.31 | 100 |  | 100 | identical to the natural hGRF(1-44)--NH2 | 
hpGRF(1-27)--NH2 (YADAIFTNSYRKVLGQLSARKLLQDIM-NH2; UniProt P01286 32-58, looked up, fragment) [shortened GRF analog tested by Rivier et al] |  |  |  |  |  |  |  |  |  |  |  |  | exhibited similar activity
hpGRF(1-29)--NH2 (YADAIFTNSYRKVLGQLSARKLLQDIMSR-NH2; UniProt P01286 32-60, looked up, fragment) [shortened GRF analog tested by Rivier et al] |  |  |  |  |  |  |  |  |  |  |  |  | exhibited similar activity
hpGRF(1-32)--NH2 (YADAIFTNSYRKVLGQLSARKLLQDIMSRQQG-NH2; UniProt P01286 32-63, looked up, fragment) [shortened GRF analog tested by Rivier et al] |  |  |  |  |  |  |  |  |  |  |  |  | exhibited similar activity
hpGRF(1-39)--NH2 (YADAIFTNSYRKVLGQLSARKLLQDIMSRQQGESNQERG-NH2; UniProt P01286 32-70, looked up, fragment) [shortened GRF analog tested by Rivier et al] |  |  |  |  |  |  |  |  |  |  |  |  | exhibited similar activity
hpGRF(1-40)--NH2 (YADAIFTNSYRKVLGQLSARKLLQDIMSRQQGESNQERGA-NH2; UniProt P01286 32-71, looked up, fragment) [shortened GRF analog tested by Rivier et al] |  |  |  |  |  |  |  |  |  |  |  |  | exhibited similar activity
